Data from the NIST ThermoML archive (doi:10.1016/j.jct.2010.10.016).

Test: xn = mol fraction of the nth substance listed
Details: 101 kPa, Liquid; for viscosity: Capillary tube (Ostwald / Ubbelohde) method; for mass density: Pycnometric method; for speed of sound: Resonance method

C[N+](=O)[O-] [nitromethane] + COCCO
Details	mass density [kg/m3]	speed of sound [m/s]	viscosity [mPa·s]
298.15 K, x1 = 0.05	965.94	1338.1	–
298.15 K, x1 = 0.0998	971.79	1334.8	–
298.15 K, x1 = 0.2	984.22	1329.2	–
298.15 K, x1 = 0.2991	–	1324.1	–
298.15 K, x1 = 0.3	997.42	–	–
298.15 K, x1 = 0.4	1011.62	1319.6	–
298.15 K, x1 = 0.4998	–	1315.6	–
298.15 K, x1 = 0.5	1027.07	–	–
298.15 K, x1 = 0.6	1044.03	1312.6	–
298.15 K, x1 = 0.694	–	–	0.725
298.15 K, x1 = 0.7	1062.69	1310.7	–
298.15 K, x1 = 0.7953	–	–	0.666
298.15 K, x1 = 0.8	–	1310.6	–
298.15 K, x1 = 0.8002	1083.23	–	–
298.15 K, x1 = 0.8997	–	–	0.629
298.15 K, x1 = 0.8999	1105.69	1312.9	–
298.15 K, x1 = 0.9454	–	–	0.621
298.15 K, x1 = 0.9503	1117.91	1315.8	–
298.15 K, x1 = 1	1130.62	1320.4	0.619
303.15 K, x1 = 0.05	961.25	–	–
303.15 K, x1 = 0.0585	–	–	1.328
303.15 K, x1 = 0.0998	966.98	–	–
303.15 K, x1 = 0.1015	–	–	1.271
303.15 K, x1 = 0.1989	–	–	1.149
303.15 K, x1 = 0.2	979.15	–	–
303.15 K, x1 = 0.3	992.16	–	–
303.15 K, x1 = 0.3091	–	–	1.02
303.15 K, x1 = 0.3978	–	–	0.925
303.15 K, x1 = 0.4	1006.16	–	–
303.15 K, x1 = 0.449	–	–	0.875
303.15 K, x1 = 0.4998	–	–	0.828
303.15 K, x1 = 0.5549	–	–	0.782
303.15 K, x1 = 0.59	–	–	0.756
303.15 K, x1 = 0.6977	–	–	0.684
303.15 K, x1 = 0.7979	–	–	0.632
303.15 K, x1 = 0.9037	–	–	0.594
303.15 K, x1 = 0.9508	–	–	0.585
303.15 K, x1 = 1	–	–	0.584
